Measurements as given in the supplement of paper PMC11208160.

Assay: recombinant UMI read abundance after kanamycin selection (control-corrected) (log10(CPM+1)); higher = more efficient recombination; extreme values may be limits of the assay; sequences stand for … in AGTGCAGAGAAAATCGGCCAGTTTTCTCTGCCTGCAGTCCGCATGCCGTGGGACCCCTTGGGTTCTAACCTGTTGCCTAGATTTATGCAGCGGACTGCCTTTCTCCCAAAGTGATAAACCGG…AGGTTGGTTTCACT; site = the 11-nt donor
Protocol: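 Pooled E. coli donor-specificity screen for the IS621 bridge recombinase. Each library member carries a reprogrammed 11-nt donor and a full-length LE bridge RNA expressed in cis from the natural promoter, with a paired donor-binding loop (8-nt LDG + 4-nt RDG) and a target-binding loop fixed to T5. It is co-electroporated with a T5 target plasmid; recombinase is induced with 0.07 mM IPTG and recombinants are selected on kanamycin. UMIs are counted as CPM, averaged over two biological replicates and corrected by the unselected control. Molecule = full bridge RNA written as DNA, built from the T5 scaffold: LDG = donor specificity nt 1-8, RDG = reverse complement of nt 8-11.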
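Further: IS621 bridge recombinase in Escherichia coli cells against a fixed T5 target plasmid.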

| Sequence | recombinant UMI read abundance (log10) |
| --- | --- |
| AGAAAACCATGGACCGGTTTTCCCGGTAATCCGTATTTGCG (site AGAAAACCTCG) | 0 |
| AGAAACGCATGGACCGGTTTTCCCGGTAATCCGTATTTGCT (site AGAAAAGCTAG) | 1.84 |
| AGAAACGCATGGACCGGTTTTCCCGGTAATCCGTATTTGCT (site AGAAACGCTAG) | 2.81 |
| AGAAACGCATGGACCGGTTTTCCCGGTAATCCGTATTTGCT (site AGAAAGGCTAG) | 0 |
| AGAAACGCATGGACCGGTTTTCCCGGTAATCCGTATTTGCT (site AGAAATGCTAG) | 0 |
| AGAAAGACATGGACCGGTTTTCCCGGTAATCCGTATTTGCG (site AGAAAGACTCG) | 2.63 |
| AGAAAGACATGGACCGGTTTTCCCGGTAATCCGTATTTGCG (site AGGAAGACTTG) | 0 |
| AGAAAGGCATGGACCGGTTTTCCCGGTAATCCGTATTTGCG (site AGAAAGGCTAG) | 1.07 |
| AGAAAGGCATGGACCGGTTTTCCCGGTAATCCGTATTTGCG (site AGAAAGGCTCG) | 1.64 |
| AGAAAGGCATGGACCGGTTTTCCCGGTAATCCGTATTTGCG (site AGAAAGGCTGG) | 0 |
| AGAAAGGCATGGACCGGTTTTCCCGGTAATCCGTATTTGCG (site AGAAAGGCTTG) | 1.15 |
| AGAAAGGCATGGACCGGTTTTCCCGGTAATCCGTATTTGCT (site AAAAAGGCTAG) | 0 |
| AGAAAGGCATGGACCGGTTTTCCCGGTAATCCGTATTTGCT (site ACAAAGGCTAG) | 0.00966 |
| AGAAAGGCATGGACCGGTTTTCCCGGTAATCCGTATTTGCT (site AGAAAAGCTAG) | 0 |
| AGAAAGGCATGGACCGGTTTTCCCGGTAATCCGTATTTGCT (site AGAAACGCTAG) | 0 |
| AGAAAGGCATGGACCGGTTTTCCCGGTAATCCGTATTTGCT (site AGAAAGACTAG) | 0 |
| AGAAAGGCATGGACCGGTTTTCCCGGTAATCCGTATTTGCT (site AGAAAGCCTAG) | 0 |
| AGAAAGGCATGGACCGGTTTTCCCGGTAATCCGTATTTGCT (site AGAAAGGCTAA) | 0.446 |
| AGAAAGGCATGGACCGGTTTTCCCGGTAATCCGTATTTGCT (site AGAAAGGCTAC) | 0.019 |
| AGAAAGGCATGGACCGGTTTTCCCGGTAATCCGTATTTGCT (site AGAAAGGCTAG) | 2.58 |
| AGAAAGGCATGGACCGGTTTTCCCGGTAATCCGTATTTGCT (site AGAAAGGCTAT) | 1.27 |
| AGAAAGGCATGGACCGGTTTTCCCGGTAATCCGTATTTGCT (site AGAAAGGCTCG) | 1.65 |
| AGAAAGGCATGGACCGGTTTTCCCGGTAATCCGTATTTGCT (site AGAAAGGCTGG) | 0.262 |
| AGAAAGGCATGGACCGGTTTTCCCGGTAATCCGTATTTGCT (site AGAAAGGCTTG) | 0 |

| Sequence | recombinant UMI read abundance (log10) |
| --- | --- |
| AGAAAGGCATGGACCGGTTTTCCCGGTAATCCGTATTTGCT (site AGAAAGTCTAG) | 0 |
| AGAAAGGCATGGACCGGTTTTCCCGGTAATCCGTATTTGCT (site AGAAATGCTAG) | 0 |
| AGAAAGGCATGGACCGGTTTTCCCGGTAATCCGTATTTGCT (site AGAACGGCTAG) | 0.235 |
| AGAAAGGCATGGACCGGTTTTCCCGGTAATCCGTATTTGCT (site AGAAGGGCTAG) | 0.224 |
| AGAAAGGCATGGACCGGTTTTCCCGGTAATCCGTATTTGCT (site AGAATGGCTAG) | 0 |
| AGAAAGGCATGGACCGGTTTTCCCGGTAATCCGTATTTGCT (site AGACAGGCTAG) | 0 |
| AGAAAGGCATGGACCGGTTTTCCCGGTAATCCGTATTTGCT (site AGAGAGGCTAG) | 0.846 |
| AGAAAGGCATGGACCGGTTTTCCCGGTAATCCGTATTTGCT (site AGATAGGCTAG) | 1.23 |
| AGAAAGGCATGGACCGGTTTTCCCGGTAATCCGTATTTGCT (site AGCAAGGCTAG) | 0 |
| AGAAAGGCATGGACCGGTTTTCCCGGTAATCCGTATTTGCT (site AGGAAGGCTAG) | 1.73 |
| AGAAAGGCATGGACCGGTTTTCCCGGTAATCCGTATTTGCT (site AGTAAGGCTAG) | 1.3 |
| AGAAAGGCATGGACCGGTTTTCCCGGTAATCCGTATTTGCT (site ATAAAGGCTAG) | 0 |
| AGAAAGGCATGGACCGGTTTTCCCGGTAATCCGTATTTGCT (site CGAAAGGCTAG) | 0.48 |
| AGAAAGGCATGGACCGGTTTTCCCGGTAATCCGTATTTGCT (site GGAAAGGCTAG) | 0.0101 |
| AGAAAGGCATGGACCGGTTTTCCCGGTAATCCGTATTTGCT (site TGAAAGGCTAG) | 0.932 |
| AGAAAGTCATGGACCGGTTTTCCCGGTAATCCGTATTTGCT (site AGAAAGACTAG) | 0 |
| AGAAAGTCATGGACCGGTTTTCCCGGTAATCCGTATTTGCT (site AGAAAGCCTAG) | 0 |
| AGAAAGTCATGGACCGGTTTTCCCGGTAATCCGTATTTGCT (site AGAAAGGCTAG) | 0 |
| AGAAAGTCATGGACCGGTTTTCCCGGTAATCCGTATTTGCT (site AGAAAGTCTAG) | 2.63 |
| AGAACAACATGGACCGGTTTTCCCGGTAATCCGTATTTGTG (site AGAACAACTCA) | 1.29 |
| AGAATCACATGGACCGGTTTTCCCGGTAATCCGTATTTGAA (site AGAATCACTTT) | 2.16 |
| AGACGAACATGGACCGGTTTTCCCGGTAATCCGTATTTGGA (site AGACGAACTTC) | 1.82 |
| AGACGCACATGGACCGGTTTTCCCGGTAATCCGTATTTGAA (site AGACGCACTTT) | 1.43 |
| AGACGCGCATGGACCGGTTTTCCCGGTAATCCGTATTTGTA (site AGACGCGCTTA) | 2.72 |

| Sequence | recombinant UMI read abundance (log10) |
| --- | --- |
| AGACGGTCATGGACCGGTTTTCCCGGTAATCCGTATTTGGC (site AGACGGTCTGC) | 3.28 |
| AGACTAACATGGACCGGTTTTCCCGGTAATCCGTATTTGCT (site AGACTAACTAG) | 2.61 |
| AGACTAGCATGGACCGGTTTTCCCGGTAATCCGTATTTGTT (site AGACTAGCTAA) | 1.07 |
| AGACTAGCATGGACCGGTTTTCCCGGTAATCCGTATTTGTT (site AGCCTAGCTAA) | 0.00926 |
| AGACTAGCATGGACCGGTTTTCCCGGTAATCCGTATTTGTT (site AGGCTAGCTAA) | 0.0149 |
| AGACTAGCATGGACCGGTTTTCCCGGTAATCCGTATTTGTT (site AGTCTAGCTAA) | 0.0145 |
| AGAGACGCATGGACCGGTTTTCCCGGTAATCCGTATTTGAG (site AGAGACGCTCT) | 2.67 |
| AGAGAGACATGGACCGGTTTTCCCGGTAATCCGTATTTGCA (site AGAGAGACTTG) | 2.98 |
| AGAGAGACATGGACCGGTTTTCCCGGTAATCCGTATTTGCA (site AGGAAGACTTG) | 1.56 |
| AGAGAGGCATGGACCGGTTTTCCCGGTAATCCGTATTTGCT (site AGAAAGGCTAG) | 2.43 |
| AGAGAGGCATGGACCGGTTTTCCCGGTAATCCGTATTTGCT (site AGACAGGCTAG) | 0.828 |
| AGAGAGGCATGGACCGGTTTTCCCGGTAATCCGTATTTGCT (site AGAGAGGCTAG) | 2.19 |
| AGAGAGGCATGGACCGGTTTTCCCGGTAATCCGTATTTGCT (site AGATAGGCTAG) | 1.69 |
| AGAGATGCATGGACCGGTTTTCCCGGTAATCCGTATTTGGG (site AGAGATGCTCC) | 1.2 |
| AGAGCATCATGGACCGGTTTTCCCGGTAATCCGTATTTGCT (site AGAGCATCTAG) | 2.16 |
| AGAGCATCATGGACCGGTTTTCCCGGTAATCCGTATTTGCT (site CGATCATCTAG) | 0 |
| AGAGCTTCATGGACCGGTTTTCCCGGTAATCCGTATTTGGA (site AGAGCTTCTTC) | 2.31 |
| AGAGTATCATGGACCGGTTTTCCCGGTAATCCGTATTTGAA (site ACAGTATCTTG) | 2.21 |
| AGAGTATCATGGACCGGTTTTCCCGGTAATCCGTATTTGAA (site AGAGTATCTTT) | 3.15 |
| AGAGTGGCATGGACCGGTTTTCCCGGTAATCCGTATTTGGT (site AGAGTGGCTAC) | 1.47 |
| AGAGTGGCATGGACCGGTTTTCCCGGTAATCCGTATTTGGT (site CGAGTGGCTAC) | 0.973 |
| AGAGTGGCATGGACCGGTTTTCCCGGTAATCCGTATTTGGT (site GGAGTGGCTAC) | 0.101 |
| AGAGTGGCATGGACCGGTTTTCCCGGTAATCCGTATTTGGT (site TGAGTGGCTAC) | 0.546 |
| AGATATCCATGGACCGGTTTTCCCGGTAATCCGTATTTGAT (site AGATATCCTAT) | 1.12 |
